Source: patent US7172751B2, “D-amino acid peptides” (Immunomedics, Inc., priority 2003, dated 2007)
*1 amine or outer side, *2 acyl side, *3 side chain or, on linkers, in order; H or OH if unused. Where a SMILES comes first, the peptide text is derived from it. Side-chain parts run from the residue outwards. [ ]: non-standard residue; d: D form. The star is where a group is joined. DOTA = O=C(O)CN1CCN(CC(=O)O)CCN(CC(=O)*)CCN(CC(=O)O)CC1; NH(2-(imidazol-4-yl)ethyl) = c1ncc(CCN*)[nH]1; Suc = O=C(CCC(=O)[*:2])[*:1]

How the values were obtained:
[1] = Protocol: A mixture of the labeled peptide and mouse serum was made and incubated at 37° C. The mouse serum was fresh nude mouse serum obtained from (GSCC on the same day). The Indium-labeled peptide solution (50 μL) and 450 μL of the mouse serum were combined and vortexed. This was incubated at 37° C. for 18.0 hrs. Injections were made into the reverse phase HPLC at t0=0 hrs and t1=18.0 hrs.
Aliquots were withdrawn at various time points and examined by reverse phase HPLC and by size exclusion HPLC.
The peptide was monitored as described above by HPLC.

[2] = system: GW-39 human colonic xenograft tumors; assay: Biodistribution of 111In IMP 237 in mice pretargeted with hMN-14×m679; type: in vivo; conditions: pretargeting
Source text: The animals were sacrificed at 3, 24, 48 hr post injection. The tumor to non-tumor ratios of the peptides in the pretargeting study are show in Table 2.

[3] = Pretargeting biodistribution of 111In-IMP 241, 281, 284 after 125I-hMN-14×m679; conditions: NCr nude, mouse, in vivo, total radioactivity
Source text: NCr nudes: (NCI) from Taconic, 4 weeks of age
At the times shown above, 5 mice per time point will be necropsied. Tissues (tumor, liver, spleen, kidney, lungs, blood, stomach, large and small intestines) will be isolated, weighed and counted in the appropriate windows.

NC(=O)[C@H](CCCCNC(=O)CNC(=O)CCC(=O)NCCc1cnc[nH]1)NC(=O)[C@H](Cc1ccc(O)cc1)NC(=O)[C@H](CCCCNC(=O)CNC(=O)CCC(=O)NCCc1cnc[nH]1)NC(=O)[C@H](Cc1ccccc1)NC(=O)CN1CCN(CC(=O)O)CCN(CC(=O)O)CCN(CC(=O)O)CC1 [IMP 237, DOTA-Phe-Lys(HSG)-Tyr-Lys(HSG)-NH2] ({DOTA}-FK([Gly-Suc-NH(2-(imidazol-4-yl)ethyl)])YK([Gly-Suc-NH(2-(imidazol-4-yl)ethyl)])-NH2)
converted to the shorter retention time peak [1]: about 70%
% Injected/g Tissue ([2]; Blood, 3 hr After 111In): 2.42 ± 0.61 % Injected/g Tissue
% Injected/g Tissue ([2]; Blood, 24 hr After 111In): 0.73 ± 0.17 % Injected/g Tissue
% Injected/g Tissue ([2]; Blood, 48 hr After 111In): 0.17 ± 0.06 % Injected/g Tissue
% Injected/g Tissue ([2]; GW-39, 3 hr After 111In): 7.25 ± 2.79 % Injected/g Tissue
% Injected/g Tissue ([2]; GW-39, 24 hr After 111In): 8.38 ± 1.70 % Injected/g Tissue
% Injected/g Tissue ([2]; GW-39, 48 hr After 111In): 5.39 ± 1.46 % Injected/g Tissue
% Injected/g Tissue ([2]; Kidney, 3 hr After 111In): 3.59 ± 0.75 % Injected/g Tissue
% Injected/g Tissue ([2]; Kidney, 24 hr After 111In): 2.24 ± 0.40 % Injected/g Tissue
% Injected/g Tissue ([2]; Kidney, 48 hr After 111In): 1.27 ± 0.33 % Injected/g Tissue
% Injected/g Tissue ([2]; Lg. Int., 24 hr After 111In): 0.17 ± 0.03 % Injected/g Tissue
% Injected/g Tissue ([2]; Lg. Int., 48 hr After 111In): 0.13 ± 0.03 % Injected/g Tissue
% Injected/g Tissue ([2]; Liver, 3 hr After 111In): 0.58 ± 0.13 % Injected/g Tissue
% Injected/g Tissue ([2]; Liver, 24 hr After 111In): 0.62 ± 0.09 % Injected/g Tissue
% Injected/g Tissue ([2]; Liver, 48 hr After 111In): 0.61 ± 0.16 % Injected/g Tissue
% Injected/g Tissue ([2]; Lungs, 3 hr After 111In): 1.19 ± 0.26 % Injected/g Tissue
% Injected/g Tissue ([2]; Lungs, 24 hr After 111In): 0.44 ± 0.10 % Injected/g Tissue
% Injected/g Tissue ([2]; Lungs, 48 hr After 111In): 0.22 ± 0.06 % Injected/g Tissue
% Injected/g Tissue ([2]; Sm. Int., 3 hr After 111In): 0.65 ± 0.74 % Injected/g Tissue
% Injected/g Tissue ([2]; Sm. Int., 24 hr After 111In): 0.18 ± 0.03 % Injected/g Tissue
% Injected/g Tissue ([2]; Sm. Int., 48 hr After 111In): 0.11 ± 0.02 % Injected/g Tissue
% Injected/g Tissue ([2]; Spleen, 3 hr After 111In): 0.50 ± 0.14 % Injected/g Tissue
% Injected/g Tissue ([2]; Spleen, 24 hr After 111In): 0.71 ± 0.16 % Injected/g Tissue
% Injected/g Tissue ([2]; Spleen, 48 hr After 111In): 0.57 ± 0.15 % Injected/g Tissue
% Injected/g Tissue ([2]; Stomach, 3 hr After 111In): 0.18 ± 0.03 % Injected/g Tissue

NC(=O)[C@H](CCCCNC(=O)CNC(=O)CCC(=O)NCCc1cnc[nH]1)NC(=O)[C@@H](Cc1ccc(O)cc1)NC(=O)[C@H](CCCCNC(=O)CNC(=O)CCC(=O)NCCc1cnc[nH]1)NC(=O)[C@H](Cc1ccccc1)NC(=O)CN1CCN(CC(=O)O)CCN(CC(=O)O)CCN(CC(=O)O)CC1 [IMP 241, DOTA-Phe-Lys(HSG)-D-Tyr-Lys(HSG)-NH2, reference compound] ({DOTA}-FK([Gly-Suc-NH(2-(imidazol-4-yl)ethyl)])[dY]K([Gly-Suc-NH(2-(imidazol-4-yl)ethyl)])-NH2)
decomposed in mouse serum [1]: ~5%
tissue uptake at 24 h [3]: 0.28 %ID/g
